Test results: ChEMBL document CHEMBL5528003 (Eur J Med Chem, 2024)

What was measured:
[1] = Metabolic stability in human liver microsomes assessed as parent compound remaining incubated for 60 mins in presence of NADPH by LC-MS/MS analysis; type: ADME, Microsome; settings: read-out: Stability
[2] = Metabolic stability in rat liver microsomes assessed as parent compound remaining incubated for 60 mins in presence of NADPH by LC-MS/MS analysis; type: ADME, Microsome; settings: read-out: Stability
[3] = molecular target: T1, Estrogen receptor (Homo sapiens, UniProt P03372); assay: Induction of Estrogen receptor degradation in wildtype human MCF7 cells assessed as reduction in estrogen receptor level incubated for 24 hrs by Western blot analysis; type: cell-based
T1 sequence (P03372 whole entry): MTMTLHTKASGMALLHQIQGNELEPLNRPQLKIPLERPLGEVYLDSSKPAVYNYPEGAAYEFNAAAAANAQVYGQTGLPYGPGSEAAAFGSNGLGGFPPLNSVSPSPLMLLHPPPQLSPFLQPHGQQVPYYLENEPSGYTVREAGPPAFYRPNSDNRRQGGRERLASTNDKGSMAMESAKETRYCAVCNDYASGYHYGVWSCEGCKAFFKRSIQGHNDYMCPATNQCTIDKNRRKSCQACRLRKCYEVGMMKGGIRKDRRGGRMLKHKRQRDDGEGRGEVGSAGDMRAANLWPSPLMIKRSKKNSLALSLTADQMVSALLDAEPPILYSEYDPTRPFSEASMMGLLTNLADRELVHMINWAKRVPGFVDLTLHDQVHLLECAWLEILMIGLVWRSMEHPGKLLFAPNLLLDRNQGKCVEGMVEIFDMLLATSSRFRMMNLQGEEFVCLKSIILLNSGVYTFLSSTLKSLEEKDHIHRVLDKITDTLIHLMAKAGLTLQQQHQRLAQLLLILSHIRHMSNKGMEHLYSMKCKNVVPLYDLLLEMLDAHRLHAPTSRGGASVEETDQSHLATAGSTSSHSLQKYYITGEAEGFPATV

[4] = tested on: MCF7; assay: Antiproliferative activity against wildtype human MCF7 cells assessed as inhibition of cell proliferation incubated for 6 days in presence of beta-estradiol by CellTiter-Glo assay; type: functional, cell-based; settings: MCF7, 144 h

remaining at 1 h [1] [%]	remaining at 1 h [2] [%]	DC50 [3] [nM]	IC50 [4] [nM]	Structure (SMILES)
29.1	78	–	–	C[C@@H]1Cc2c([nH]c3ccccc23)[C@@H](c2c(F)cc(NC3CN(CC[S+]([O-])CCCC(F)(F)C(F)(F)F)C3)cc2F)N1CC(F)(F)CO (stereo partly specified)
71.2	99.1	10.6	9.7	C[C@@H]1Cc2c([nH]c3ccccc23)[C@@H](c2c(F)cc(NC3CN(CCCS(=O)(=O)CCCC(F)(F)C(F)(F)F)C3)cc2F)N1CC(F)(F)F
–	–	3.8	–	C[C@@H]1Cc2c([nH]c3ccccc23)[C@@H](c2c(F)cc(NC3CN(CCOCCCC(F)(F)C(F)(F)F)C3)cc2F)N1CC(F)(F)CO
24.9	53.7	–	–	C[C@@H]1Cc2c([nH]c3ccccc23)[C@@H](c2c(F)cc(OC3CN(CC[S+]([O-])CCCC(F)(F)C(F)(F)F)C3)cc2F)N1CC(F)(F)F (stereo partly specified)
43	71.6	–	–	C[C@@H]1Cc2c([nH]c3ccccc23)[C@@H](c2c(F)cc(NC3CN(CC[S+]([O-])CCCC(F)(F)C(F)(F)F)C3)cc2F)N1CC(F)(F)F (stereo partly specified)
